From ChEMBL document CHEMBL6092212, “Discovery of novel substituted (Z)-N'-hydroxy-3-(3-phenylureido)benzimidamide derivatives as multifunctional molecules targeting pathological hallmarks of Alzheimer's disease” (Eur J Med Chem, 2024)

Legend:
Acetylcholinesterase [1] = biological target: T1, Acetylcholinesterase (Homo sapiens, UniProt P22303); assay: Inhibition of human AChE using ATCI as substrate preincubated for 30 mins followed by substrate addition measured after 30 mins by Ellman's method
Cholinesterase = Cholinesterase (Equus caballus, UniProt P81908); assay: Inhibition of equine BChE using BTCI as substrate preincubated for 30 mins followed by substrate addition measured after 30 mins by Ellman's method
Acetylcholinesterase [2] = biological target: T1, Acetylcholinesterase; assay: Inhibition of human AChE using ATCI as substrate preincubated for 30 mins followed by substrate addition measured after 30 mins by Ellman's method relative to control; set-up: concentration or dose not given beside the values; conditions: time 60.0 min
[3] = biological target: Cholinesterase (Equus caballus) (UniProt P81908); assay: Inhibition of equine BChE using BTCI as substrate preincubated for 30 mins followed by substrate addition measured after 30 mins by Ellman's method relative to control
[4] = Antioxidant activity assessed as inhibition of DPPH radical scavenging activity incubated for 30 mins by absorbance based analysis; assay type: functional
[5] = Antioxidant activity assessed as DPPH radical scavenging activity at 20 to 200 uM incubated for 30 mins by absorbance based analysis relative to control; assay type: functional; conditions: dose 20-200 µM

T1 sequence (P22303 whole entry): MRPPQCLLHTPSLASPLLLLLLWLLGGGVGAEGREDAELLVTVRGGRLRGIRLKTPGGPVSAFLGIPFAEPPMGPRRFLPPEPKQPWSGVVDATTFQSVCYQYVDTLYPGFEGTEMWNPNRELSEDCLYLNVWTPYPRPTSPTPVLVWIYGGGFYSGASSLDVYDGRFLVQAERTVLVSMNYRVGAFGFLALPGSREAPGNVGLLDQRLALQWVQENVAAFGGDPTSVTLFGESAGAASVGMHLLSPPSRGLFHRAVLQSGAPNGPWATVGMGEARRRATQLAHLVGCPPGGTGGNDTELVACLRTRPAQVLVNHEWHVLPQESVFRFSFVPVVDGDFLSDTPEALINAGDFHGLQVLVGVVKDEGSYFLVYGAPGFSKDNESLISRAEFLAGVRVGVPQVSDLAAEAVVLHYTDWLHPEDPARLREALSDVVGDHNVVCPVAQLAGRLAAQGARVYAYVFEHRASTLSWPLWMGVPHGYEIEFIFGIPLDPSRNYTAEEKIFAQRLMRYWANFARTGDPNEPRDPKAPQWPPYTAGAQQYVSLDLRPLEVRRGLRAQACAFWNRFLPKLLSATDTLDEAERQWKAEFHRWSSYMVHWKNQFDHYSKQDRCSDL
Chain of Cholinesterase (P81908 whole entry): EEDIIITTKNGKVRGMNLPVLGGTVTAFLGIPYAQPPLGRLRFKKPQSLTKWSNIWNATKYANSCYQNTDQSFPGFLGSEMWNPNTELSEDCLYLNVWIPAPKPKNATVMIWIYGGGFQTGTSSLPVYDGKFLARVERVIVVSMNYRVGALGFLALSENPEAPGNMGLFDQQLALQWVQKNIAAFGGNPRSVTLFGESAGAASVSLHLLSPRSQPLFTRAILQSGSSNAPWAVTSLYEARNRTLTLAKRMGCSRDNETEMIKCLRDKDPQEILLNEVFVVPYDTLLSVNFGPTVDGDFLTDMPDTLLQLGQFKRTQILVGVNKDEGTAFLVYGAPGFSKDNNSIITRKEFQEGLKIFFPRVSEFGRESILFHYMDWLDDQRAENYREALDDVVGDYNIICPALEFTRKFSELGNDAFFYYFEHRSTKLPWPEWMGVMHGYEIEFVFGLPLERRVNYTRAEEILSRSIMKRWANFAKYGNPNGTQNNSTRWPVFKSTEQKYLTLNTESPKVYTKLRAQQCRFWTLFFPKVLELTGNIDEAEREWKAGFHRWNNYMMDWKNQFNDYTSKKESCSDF
Chain of Cholinesterase (Equus caballus) (P81908 whole entry): as above

SMILES: COc1cccc(NC(=O)Nc2ccc(/C(N)=N/O)cc2)c1
- IC50 (Acetylcholinesterase [1]): 9.15 µM
- IC50 (Cholinesterase): 18.2 µM

SMILES: NC(=NO)c1cccc(NC(=O)Nc2cccc(Cl)c2)c1
- IC50 (Acetylcholinesterase [1]): 17.4 µM
- IC50 (Cholinesterase): 18.7 µM

SMILES: NC(=NO)c1cccc(NC(=O)Nc2cccc([N+](=O)[O-])c2)c1
- IC50 (Acetylcholinesterase [1]): 12.1 µM
- IC50 (Cholinesterase): 16.3 µM

SMILES: N/C(=N\O)c1cccc(NC(=O)Nc2ccccc2Cl)c1
- inhibition (Acetylcholinesterase [2]): 49.2%

SMILES: NC(=NO)c1cccc(NC(=O)Nc2ccc(F)cc2)c1
- IC50 (Acetylcholinesterase [1]): 7.51 µM
- IC50 (Cholinesterase): 17.7 µM

SMILES: N/C(=N\O)c1cccc(NC(=O)Nc2ccc(C(F)(F)F)cc2)c1
- IC50 (Acetylcholinesterase [1]): 12.2 µM
- inhibition [3]: 47%

SMILES: Cc1ccc(NC(=O)Nc2cccc(/C(N)=N/O)c2)cc1
- IC50 (Cholinesterase): 17.9 µM
- inhibition (Acetylcholinesterase [2]): 39.9%

SMILES: N/C(=N\O)c1cccc(NC(=O)Nc2ccccc2)c1
- IC50 (Cholinesterase): 17.5 µM
- inhibition (Acetylcholinesterase [2]): 47.9%

SMILES: COc1ccc(NC(=O)Nc2cccc(/C(N)=N/O)c2)cc1
- IC50 (Acetylcholinesterase [1]): 16.3 µM
- IC50 (Cholinesterase): 17.9 µM

SMILES: Cc1ccccc1NC(=O)Nc1cccc(/C(N)=N/O)c1
- IC50 (Acetylcholinesterase [1]): 17.4 µM
- IC50 (Cholinesterase): 15.4 µM

SMILES: COc1cccc(NC(=O)Nc2cccc(/C(N)=N/O)c2)c1
- IC50 (Acetylcholinesterase [1]): 12.9 µM
- IC50 (Cholinesterase): 12.8 µM

SMILES: NC(=NO)c1cccc(NC(=O)Nc2ccc(Br)cc2)c1
- IC50 (Acetylcholinesterase [1]): 16.8 µM
- IC50 (Cholinesterase): 14.6 µM

SMILES: COc1ccccc1NC(=O)Nc1cccc(/C(N)=N/O)c1
- IC50 (Cholinesterase): 15.2 µM
- inhibition (Acetylcholinesterase [2]): 49%

SMILES: N/C(=N\O)c1cccc(NC(=O)Nc2ccccc2Br)c1
- inhibition [3]: 49.2%
- inhibition (Acetylcholinesterase [2]): 47.7%

SMILES: O=c1c(O)c(-c2ccc(O)c(O)c2)oc2cc(O)cc(O)c12 [QUERCETIN]
- IC50 [4]: 3.23 µM
- Activity [5]: 79.4%

SMILES: N/C(=N\O)c1cccc(NC(=O)Nc2ccc3ncccc3c2)c1
- IC50 [4]: 18.4 µM
- Activity [5]: 42.9%

SMILES: N/C(=N\O)c1cccc(NC(=O)Nc2cccc(Br)c2)c1
- IC50 (Acetylcholinesterase [1]): 14.5 µM
- IC50 (Cholinesterase): 8.63 µM

SMILES: NC(=NO)c1cccc(NC(=O)Nc2ccc([N+](=O)[O-])cc2)c1
- IC50 (Acetylcholinesterase [1]): 16.3 µM
- IC50 (Cholinesterase): 17.6 µM

SMILES: N/C(=N\O)c1cccc(NC(=O)Nc2cccc(C(F)(F)F)c2)c1
- IC50 (Acetylcholinesterase [1]): 17 µM
- IC50 (Cholinesterase): 10.5 µM

SMILES: N/C(=N\O)c1cccc(NC(=O)Nc2ccc(Cl)cc2)c1
- IC50 (Acetylcholinesterase [1]): 14.1 µM
- IC50 (Cholinesterase): 16.5 µM

SMILES: N/C(=N\O)c1cccc(NC(=O)NCCc2c[nH]c3ccc(Cl)cc23)c1
- IC50 (Acetylcholinesterase [1]): 1.16 µM
- IC50 (Cholinesterase): 3.1 µM

SMILES: N/C(=N\O)c1ccc(NC(=O)Nc2ccc(Cl)cc2)cc1
- IC50 (Acetylcholinesterase [1]): 7.65 µM
- IC50 (Cholinesterase): 14.6 µM

SMILES: NC(=NO)c1ccc(NC(=O)Nc2cccc(Br)c2)cc1
- IC50 (Acetylcholinesterase [1]): 6.41 µM
- IC50 (Cholinesterase): 7.62 µM

SMILES: N/C(=N\O)c1cccc(NC(=O)Nc2ccccc2F)c1
- IC50 (Acetylcholinesterase [1]): 18.6 µM
- IC50 (Cholinesterase): 11.3 µM

SMILES: Cc1ccccc1NC(=O)Nc1ccc(/C(N)=N/O)cc1
- IC50 (Acetylcholinesterase [1]): 8.57 µM
- IC50 (Cholinesterase): 16.9 µM

SMILES: NC(=NO)c1cccc(NC(=O)Nc2ccccc2Cl)c1
- IC50 (Cholinesterase): 15.4 µM

SMILES: N/C(=N\O)c1cccc(NC(=O)Nc2ccc(O)cc2)c1
- IC50 (Acetylcholinesterase [1]): 16.3 µM
- IC50 (Cholinesterase): 14.4 µM

SMILES: NC(=NO)c1cccc(NC(=O)Nc2ccc3ncccc3c2)c1
- IC50 (Acetylcholinesterase [1]): 5.68 µM
- IC50 (Cholinesterase): 15.4 µM

SMILES: N/C(=N\O)c1cccc(NC(=O)NCCc2c[nH]c3ccccc23)c1
- IC50 (Acetylcholinesterase [1]): 1.54 µM
- IC50 (Cholinesterase): 3.91 µM

SMILES: Cc1cccc(NC(=O)Nc2cccc(/C(N)=N/O)c2)c1
- IC50 (Cholinesterase): 10.6 µM
- inhibition (Acetylcholinesterase [2]): 42.5%

SMILES: N/C(=N\O)c1ccc(NC(=O)Nc2cccc(F)c2)cc1
- IC50 (Acetylcholinesterase [1]): 3.04 µM
- IC50 (Cholinesterase): 8.08 µM

SMILES: N/C(=N\O)c1ccc(NC(=O)Nc2ccc3ncccc3c2)cc1
- IC50 (Acetylcholinesterase [1]): 6.94 µM
- IC50 (Cholinesterase): 13.2 µM

SMILES: NC(=NO)c1cccc(NC(=O)Nc2ccccc2C(F)(F)F)c1
- IC50 (Acetylcholinesterase [1]): 18.3 µM
- IC50 (Cholinesterase): 17.1 µM

SMILES: NC(=NO)c1cccc(NC(=O)Nc2cccc(O)c2)c1
- IC50 (Acetylcholinesterase [1]): 14.5 µM
- IC50 (Cholinesterase): 15.5 µM

SMILES: N/C(=N\O)c1cccc(NC(=O)Nc2ccc3[nH]ccc3c2)c1
- IC50 (Acetylcholinesterase [1]): 6.24 µM
- IC50 [4]: 22.9 µM
- Activity [5]: 34.2%
- IC50 (Cholinesterase): 15.9 µM

SMILES: N/C(=N\O)c1ccc(NC(=O)Nc2ccc3[nH]ccc3c2)cc1
- IC50 (Acetylcholinesterase [1]): 7.47 µM
- IC50 (Cholinesterase): 12.7 µM
